Assays:
A549 cells [1] = assay: Cell EDU proliferation assay, A549; format: cell-based, human; conditions: 150 μM
Experimental: (§1) The compound of formula (I) at a concentration of 150 μM was co-cultured with the cells for 42 h, and then the FBS concentration in the FBS stimulation well was increased to 20%. The cells were cultured for another 6 h, and then detected using a Cell-Light EDUApollo567 kit.
(§2) (1) Cells in the logarithmic growth phase were taken, and inoculated into a 24-well culture plate at 1×10^4 cells per well. The culture plate was cultured in a 37° C. incubator under the condition of 5% CO2, and drug was added according to the assay design when the cells adhered to the wall.
(§3) (2) After the drug treatment, the Cell-Light EDU Apollo567 kit was taken out. The reagent A in the kit was diluted with 1640 complete culture medium at a ratio of 1000:1 to prepare a 50 μM EDU culture medium, 300 μl of which was configured to each well of the 24-well plate. The 24-well plate was taken out from the incubator, and the original culture medium was aspirated with a vacuum aspirator. […]
(§4) (12) 150 μl of PBS was added to each well to wash once, and the PBS was discarded. Then, 200 μl of PBS was added, and the plate was placed on an inverted fluorescence microscope to take pictures. 6 fields of view were taken for each well under a 200× field of view, and the proportion of EDU-positive cells among 100 cells was calculated. […]

A549 cells [2] = assay: Colony formation assay, A549; format: cell-based, human; conditions: 50 μM and 150 μM vs 0 μM, about 2 weeks
Experimental: (1) The cell status was observed under a microscope. Cells in the logarithmic growth phase were selected and digested to make a cell suspension. 20 μl of the cell suspension was taken with a pipette and added to the CountStar disposable cell counting plate for cell counting, and the counting results were recorded.
(2) A 6-well culture plate was used for colony formation assay. Approximately 1,000 cells were inoculated into each well, and the complete culture medium was added to make up the volume to 2.5 ml per well. The cells were shaked in a figure-8 pattern to disperse the cells evenly. The next day, the compound of formula (I) at different concentrations (0 μM, 50 μM, and 150 μM) were added to the corresponding wells according to the assay plan, and incubated in an incubator at 37° C. with 5% CO2 for about 2 weeks. The culture was terminated when visible colonies appeared.
(3) The culture plate was taken out, and the old culture medium was discarded. The cells were gently washed twice with PBS.
(4) 500 μl of 4% paraformaldehyde fixative was added to each well to fix the cells at room temperature for 15 minutes, and then the fixative was discarded.
(5) 500 μl of 0.1% crystal violet solution was added to each well, and cells were stained at room temperature for at least 15 minutes. The crystal violet was discarded, and the staining solution was slowly washed away with running water. […]

NCI-H460 cells = assay: Cell EDU proliferation assay, NCI-H460; format: cell-based, human; conditions: 150 μM
Experimental: as §1, §2, §3, §4

[3] = Solubility of the compound in organic solvents; format: physicochemical; conditions: organic solvents (DMSO and isopropyl alcohol 3:7 selected)
Experimental: The containers with DMSO and isopropyl alcohol were opened in a biological safety cabinet. A 15 ml centrifuge tube was taken, and 3 ml of DMSO and 7 ml of isopropyl alcohol were added to make a mixed solvent. The molecular weight of the compound of formula (I) is 678.22 g/mol. 40.69 mg of an original drug of the compound of formula (I) was weighed, and 4 ml of the mixed solvent was added. The mixture was mixed well by pipetting. […] The solution was diluted according to the required concentration when being used.

[4] = Example 8: serum UREA at the end of the assay; format: in vivo, nude mice; conditions: DDP 5 mg/kg i.p. QW×4
Source text: The assay animals, calculation of tumor volume (TV), end of assay, data recording, calculation formula of tumor growth inhibition rate TGI (%), and statistical analysis method were the same as those in Example 3; the preparation of the administration formulation of the compound of formula (I) was the same as that in Example 5. [table]

[5] = FBS increased to 20% for last 6 h

SMILES	proportion of proliferating cells (EDU) (A549 cells [1]; 48 hours, vs CTL (0 μM))	cell proliferation under FBS stimulation (EDU) (A549 cells [1]; [5])	colony-forming ability (A549 cells [2])	proportion of proliferating cells (EDU) (NCI-H460 cells; 48 hours, vs CTL (0 μM))	cell proliferation under FBS stimulation (EDU) (NCI-H460 cells; [5])	solubility in organic solvents [3]	Serum UREA Mean ± SE [4] [mmol/L]
COC1=C(OC)C(=O)C(CCCCCCCCCCOC(=O)Cc2c(C)n(C(=O)c3ccc(Cl)cc3)c3ccc(OC)cc23)=C(C)C1=O [compound of formula (I)]	significantly reduced	can inhibit the cell proliferation effect	decreased significantly	significantly reduced	can inhibit the cell proliferation effect	easily soluble	–
N.N.[Cl][Pt][Cl] [DDP, cisplatin]	–	–	–	–	–	–	13.43 ± 1.04
